Results: US20230322854A1, “HUNTINGTIN-RELATED PEPTIDE AGENTS AND USES THEREOF” (UNIVERSITY OF SOUTHERN CALIFORNIA, priority 2020, published 2023)
“Also recorded” adds a separate entry of the source.

Tested on: not listed separately
Test: Radioactive binding assay, beads without target (no target control)
Conditions: radiolabeled peptide
Experimental: (§1) The binding of the peptide library was determined using a radioactive binding assay. In this assay, peptides were radiolabeled by translating the mRNA coding for these peptides in the presence of ^35S-methionine using rabbit reticulocyte lysate (Jackson, et al. (1983) Methods Enzymol 96: 50-74). These peptides were translated in an mRNA display format and were thus linked to their encoding mRNA, as described above. After purification by dT chromatography, the radiolabeled peptides were incubated with Huntingtin fibrils immobilized on Neutravidin Agarose or Streptavidin Ultralink beads. The beads were then filtered through a Spin X column (Corning) to separate the supernatant and beads, then washed to remove unbound sequences. The supernatant, washes, and beads were all counted in a scintillation counter to determine the counts in each sample. The percent bound was determined by dividing the counts on the beads with the total counts (beads+washes+supernatant).

Molecule	binding to beads without target
MDLWPMWESW (MDLWPMWESWGSGTSGSS) [HD7]	little to no binding to beads without target
MFFVLSWTPL [HD5]	high non-specific binding to beads without target
MFMMMWMSLT (MFMMMWMSLTGSGTSGSS) [HD4]	little to no binding to beads without target
MQMWTMWEPW (MQMWTMWEPWGSGTSGSS) [HD 6]	little to no binding to beads without target
MRWSMSYSWA (MRWSMSYSWAGSGTSGSS) [HD3]	little to no binding to beads without target
MWMIQMPGYQ (MWMIQMPGYQGSGTSGSS) [HD2]	little to no binding to beads without target

Tested on: unbundled Huntingtin fibrils (exon 1)
Test: Radioactive binding assay, immobilized unbundled Huntingtin fibrils
Conditions: 0.7 μg protein (about 50 pmol as monomer)
Text: Messenger RNA (mRNA) display (described in (Roberts, et al. (1997) Proc Natl Acad Sci USA 94: 12297-302, Takahashi, et al. (2003) Trends Biochem Sci 28: 159-65); FIG. 2) was used to engineer peptide agents that bind to unbundled fibrils of Huntingtin exon 1. To do this, unbundled Huntingtin fibrils were generated by mixing biotinylated Huntingtin protein (exon 1; FIG. 1) with non-biotinylated exon 1 Huntingtin protein at a ratio of 1:20 (˜5% biotinylated Huntingtin). These fibrils were then immobilized on Neutravidin agarose (Thermo Fisher) or Streptavidin ultralink beads (Thermo Fisher) via the attached biotin. A MX9 (where X is any of the 20 natural amino acids) mRNA display library was generated using published procedures (Takahashi, et al. (2009) Methods Mol Biol 535: 293-314) and incubated with immobilized fibrils. Non-binding sequences were washed away and the remaining fibril binding peptides were amplified via RT-PCR. This process was repeated seven times.
as §1

binding under lower fibril conditions	Molecule
better performing	HD1-SP10-HD8-SP10-HD1: trimeric peptide agent of HD1, HD8, HD1 with spacers (MDWWPMWPSLGSGTSGSSGSMWQMMNGMSQGSGTSGSSGSMDWWPMWPSL)

Same assay, conditions: 1 M, 2 M or 3 M urea versus buffer only (TBST)

Molecule	binding in the presence of urea
HD8SP10-HD1: dimeric peptide agent of HD8 and HD1 joined by a 10 amino acid spacer (MWQMMNGMSQGSGTSGSSGSMDWWPMWPSLGSGTSGSS)	decreased binding that is approximately proportional to the amount of urea added

Same assay, conditions: Alanine scan of HD1

effect on binding of mutating the HD1 residue to Alanine	Molecule
decrease binding	MDAWPMWPSL [W3]
decrease binding	MDWWAMWPSL [P5]

Second part, the molecule before the results:

Molecule	effect on binding of mutating the HD1 residue to Alanine
MDWWPAWPSL [M6]	decrease binding; also recorded: reduced but did not abolish
MDWWPMWASL [P8]	decrease binding
MDWWPMWPSA [L10]	decrease binding

Same assay, conditions: Alanine scan of HD8

effect on binding of mutating the HD8 residue to Alanine	Molecule
large losses of binding	MWAMMNGMSQ [Q3]
modest losses	MWQMANGMSQ [M5]

Continued, molecule first:

Molecule	effect on binding of mutating the HD8 residue to Alanine
MAQMMNGMSQ [W2]	modest losses
MWQMMNAMSQ [G7]	modest losses
MWQMMNGASQ [M8]	modest losses

Same assay, conditions: HD 1A versus HD1 with GSGTSGSS; HD1 MA versus HD1 MM

effect on HD1 binding of constant region / N-terminal mutation	Molecule
significantly decreases binding	HD1 MA: HD1 with additional Met at the N-terminus, Met1 changed to Ala (MADWWPMWPSLGSGTSGSS)
little effect on binding affinity	HD 1A: HD1 with substitution of the GSGTSGSS constant region with Ala (MDWWPMWPSLA)

Same assay, conditions: HD1 Met mutants versus HD1

effect on binding of Met substitution in HD1	Molecule
no effect on binding	MDWWPLWPSL (MDWWPLWPSLGSGTSGSS) [HD1 M6L]

Same assay, conditions: radiolabeled mRNA-peptide fusions, fibrils immobilized on beads

binding to Htt-fibrils	Molecule
good binding to Htt-fibrils	MDLWPMWESW (MDLWPMWESWGSGTSGSS) [HD7]
good binding to Htt-fibrils	MQMWTMWEPW (MQMWTMWEPWGSGTSGSS) [HD 6]

More lines, now with the values behind:

Molecule	binding to Htt-fibrils
MFMMMWMSLT (MFMMMWMSLTGSGTSGSS) [HD4]	demonstrated binding to Htt-fibrils
MRWSMSYSWA (MRWSMSYSWAGSGTSGSS) [HD3]	demonstrated binding to Htt-fibrils
MWMIQMPGYQ (MWMIQMPGYQGSGTSGSS) [HD2]	demonstrated binding to Htt-fibrils

Same assay, conditions: serum diluted 1:2, 1:5 or 1:10 with buffer (TBST)

binding to Htt-fibrils in the presence of serum	Molecule
serum can partially inhibit binding	HD8-SP10-HD1-SP10-HD8-SP10-HD1: tetrameric HD8/HD1 molecule with spacers (peptide) peptide: MWQMMNGMSQGSGTSGSSGSMDWWPMWPSLGSGTSGSSGSMWQMMNGMSQGSGTSGSSGSMDWWPMWPSL

Same assay, conditions: versus HD8 with GSGTSGSS; HD8 MA versus HD8 MM

effect on HD8 binding affinity of constant region / N-terminal mutation	Molecule
decrease in binding	MAWQMMNGMSQ GSGTSGSS (MAWQMMNGMSQGSGTSGSS) [HD8 MA]
modest loss in binding affinity	MWQMMNGMSQA [HD 8A]
loss could be recovered	MWQMMNGMSQG [HD 8G]
loss could be recovered	MWQMMNGMSQGS [HD 8GS]
